Measurements published in patent publication US11993573B2, “Chromane-substituted, tetrahydroquinoline-substituted and thiochromane-substituted heteroarotinoids as anti-cancer agents” (THE BOARD OF REGENTS FOR OKLAHOMA STATE UNIVERSITY, priority 2018, dated 2024).
Where two headings read alike, the source gives them in different places.

Tested on: human ovarian cancer cell line A2780
Assay: Growth inhibition assay (CellTiter 96 Non-Rad Cell Proliferation Assay)
Type: cell-based
Conditions: for efficacy compared with SHetA2 / IC50 compared with SHetA2: comparison in words; for IC50 compared with SHetA2: 'exceeded' = lower IC50 in Table 1
Method: To illustrate the general activity of the compounds inhibiting growth of human […] ovarian cancer cells, selected compounds were synthesized and evaluated. The compounds were dissolved in DMSO at a concentration of 0.01 M. The human ovarian cancer cell line A2780 was plated in 96-well tissue culture dishes at a concentration of 3000 cells per well in RPMI medium supplemented with 10% fetal bovine serum and a mixture of antibiotics and antimycotics. The next day, the cultures were treated in triplicate with compound concentrations ranging from 2 μM to 8 μM increments. For compound 12, additional experiments were performed with concentrations of 10 μM and a series of two-fold dilutions to 156 nM. Control cultures were treated with DMSO solvent only. After 72 h of incubation, the […] 96® Non-Rad Cell Proliferation Assay (Promega) was used to quantify the remaining metabolically living cells. After subtracting blank values, the optical density (OD) readouts of the assay for the treated cultures were normalized with the average OD of the control cultures. For each compound, the experiment was repeated at least once, resulting in a minimum of 6 dose-response curves. For SHetA2, 24 response curves were available for statistical fitting parameters. A custom program was written in GNU Octave, a free software compatible with Matlab, to fit the dose-response curves with a four-parameter sigmoid function, extracting the IC50 and efficacy (the maximal % growth inhibition) parameters.
To illustrate the useful biological activity of these chroman-substituted and tetrahydroquinoline-substituted heteroarotinoids, the compounds were screened against human […] ovarian cancer cells.

[1] = Homo sapiens, A2780, 72 h, Table 1, chroman-containing series
[2] = Homo sapiens, A2780, 72 h, Table 1, maximal % growth inhibition, A2780, 72 h, read-out: Efficacy
[3] = Homo sapiens, A2780, 72 h, Table 2, tetrahydroquinoline-containing members
[4] = Homo sapiens, A2780, 72 h, Table 2, maximal % growth inhibition, A2780, 72 h, read-out: Efficacy
[5] = Table 2, tetrahydroquinoline-containing members, A2780, 72 h
[6] = Table 2, maximal % growth inhibition, A2780, 72 h
[7] = Homo sapiens, A2780, Table 3, 14 series (thiochroman), A2780
[8] = Homo sapiens, A2780, Table 3, 14 series, A2780, read-out: % Efficacy

| SMILES | IC50 [1] [µM] | IC50 [7] [µM] | Emax [2] [%] | efficacy compared with SHetA2 (A2780) | Emax [8] [%] | further results |
| --- | --- | --- | --- | --- | --- | --- |
| CCOC(=O)c1ccc(NC(=S)Nc2ccc3c(c2)C(C)(C)CC(C)(C)O3)cc1 [Compound 2b, Ethyl 4-(3-(2,2,4,4-Tetramethylchroman-6-yl)thioureido)benzoate] | 4.3 | – | 26 | – | – | – |
| CC1(C)CCOc2ccc(NC(=O)Nc3ccc(C(F)(F)F)cc3)cc21 [Compound 5b] | – | – | – | – | – | IC50 (Table 1, chroman-containing series, A2780, 72 h): 5 µM; Efficacy (Table 1, maximal % growth inhibition, A2780, 72 h): 47% |
| CC1(C)CC[N+](C)(C)c2ccc(NC(=O)Nc3ccc([N+](=O)[O-])cc3)cc21 [Compound 10, 1,1,4,4-Tetramethyl-6-(3-(4-nitrophenyl)ureido)-1,2,3,4-tetrahydroquinolin-1-ium Iodide] | – | – | – | – | – | IC50 [3]: 6.6 µM; Emax [4]: 22% |
| CN1c2ccc(NC(=S)Nc3ccc(C(F)(F)F)cc3)cc2C(C)(C)C(=O)C1(C)C [Compound 11d] | – | – | – | – | – | IC50 [5]: 3.9 µM; Efficacy [6]: 90.8 (±2.0) % |
| CN1c2ccc(NC(=O)Nc3ccc(N)cc3)cc2C(C)(C)C(=O)C1(C)C [Compound 11g, 1-(4-Aminophenyl)-3-(1,2,2,4,4-pentamethyl-3-oxo-1,2,3,4-tetrahydroquinolin-6-yl)urea] | – | – | – | – | – | IC50 [3]: 7.7 µM; Emax [4]: 24% |
| CN1c2ccc(NC(=S)Nc3ccc([N+](=O)[O-])cc3)cc2C(C)(C)C(O)C1(C)C (centres unmarked) [Compound 13b] | – | – | – | – | – | IC50 [5]: 10 µM; Efficacy [6]: 25 (±4) % |
| CC1(C)CC(C)(C)c2cc(NC(=O)Nc3ccc(C(F)(F)F)cc3)ccc2S1 [Compound 14a, 1-(2,2,4,4-Tetramethylthiochroman-6-yl)-3-(4-(trifluoromethyl)phenyl)urea] | – | 3.79 ± 0.05 | – | exceeded that of SHetA2 in efficacy | 93.3 ± 0.1 | – |
| CC1(C)CC(C)(C)c2cc(NC(=O)Nc3ccc(OC(F)(F)F)cc3)ccc2S1 [Compound 14b, 1-(2,2,4,4-Tetramethylthiochroman-6-yl)-3-(4-(trifluoromethoxy)phenyl)urea] | – | 1.86 ± 0.09 | – | exceeded that of SHetA2 in efficacy | 95.6 ± 0.4 | – |
| CC1(C)CC(C)(C)c2cc(NC(=S)Nc3ccc(Cl)cc3)ccc2S1 [Compound 14d, 1-(4-Chlorophenyl)-3-(2,2,4,4-tetramethylthiochroman-6-yl)thiourea] | – | 3.17 ± 0.25 | – | exceeded that of SHetA2 in efficacy | 91.9 ± 0.5 | – |
| CC1(C)CC(C)(C)c2cc(NC(=S)Nc3ccc(C(F)(F)F)cc3)ccc2S1 [Compound 14e, 1-(2,2,4,4-Tetramethylthiochroman-6-yl)-3-(4-(trifluoromethyl)phenyl)thiourea] | – | 2.86 ± 0.29 | – | exceeded that of SHetA2 in efficacy | 95.9 ± 0.6 | – |
| CC1(C)CC(C)(C)c2cc(NC(=S)Nc3ccc(OC(F)(F)F)cc3)ccc2S1 [Compound 14f, 1-(2,2,4,4-Tetramethylthiochroman-6-yl)-3-(4-(trifluoromethoxy)phenyl)thiourea] | – | 3.51 ± 0.07 | – | exceeded that of SHetA2 in efficacy | 95.3 ± 0.4 | – |
| CC1(C)CC(C)(C)c2cc(NC(=S)Nc3ccc(C(N)=O)cc3)ccc2S1 [Compound 14g, 4-(3-(2,2,4,4-Tetramethylthiochroman-6-yl)thioureido)benzamide] | – | 3.53 ± 0.12 | – | – | 64.2 ± 1.8 | – |
| COc1ccc(NC(=S)Nc2ccc3c(c2)C(C)(C)CC(C)(C)S3)cc1 [Compound 14h, 1-(4-Methoxyphenyl)-3-(2,2,4,4-tetramethylthiochroman-6-yl)thiourea] | – | 2.78 ± 0.47 | – | – | 59.8 ± 1.2 | – |
| COc1cccc(NC(=S)Nc2ccc3c(c2)C(C)(C)CC(C)(C)S3)c1 [Compound 14i, 1-(3-Methoxyphenyl)-3-(2,2,4,4-tetramethylthiochroman-6-yl)thiourea] | – | 3.04 ± 0.52 | – | – | 38.8 ± 0.04 | – |
| CC1(C)CC(C)(C)c2cc(NC(=S)NCc3ccccc3)ccc2S1 [Compound 14j, 1-Benzyl-3-(2,2,4,4-tetramethylthiochroman-6-yl)thiourea] | – | 3.03 ± 0.47 | – | exceeded that of SHetA2 in efficacy | 85.6 ± 0.6 | – |
| CC1(C)CC(C)(C)c2cc(NC(=S)NCCc3ccccc3)ccc2S1 [Compound 14k, 1-Phenethyl-3-(2,2,4,4-tetramethylthiochroman-6-yl)thiourea] | – | 3.19 ± 0.47 | – | exceeded that of SHetA2 in efficacy | 88.2 ± 0.3 | – |
| CC1(C)CC(C)(C)c2cc(NC(=S)NCc3ccc(Cl)cc3)ccc2S1 [Compound 14l, 1-(4-Chlorobenzyl)-3-(2,2,4,4-tetramethylthiochroman-6-yl)thiourea] | – | 2.98 ± 0.44 | – | exceeded that of SHetA2 in efficacy | 89.4 ± 2.8 | – |
| CC1(C)CC(C)(C)c2cc(NC(=S)NCc3ccc([N+](=O)[O-])cc3)ccc2S1 [Compound 14m, 1-(4-Nitrobenzyl)-3-(2,2,4,4-tetramethylthiochroman-6-yl)thiourea] | – | 4.7 ± 0.11 | – | exceeded that of SHetA2 in efficacy | 94.5 ± 0.6 | – |
| CC1(C)CC(C)(C)c2cc(NC(=S)NCc3ccc(C(F)(F)F)cc3)ccc2S1 [Compound 14n, 1-(2,2,4,4-Tetramethylthiochroman-6-yl)-3-(4-(trifluoromethyl)benzyl)thiourea] | – | 4.82 ± 0.41 | – | exceeded that of SHetA2 in efficacy | 95.3 ± 0.3 | – |
| COc1ccc(CNC(=S)Nc2ccc3c(c2)C(C)(C)CC(C)(C)S3)cc1 [Compound 14o, 1-(4-Methoxybenzyl)-3-(2,2,4,4-tetramethylthiochroman-6-yl)thiourea] | – | 3.26 ± 0.43 | – | exceeded that of SHetA2 in efficacy | 89.6 ± 0.9 | – |

Now from value to compound, other results behind:

| IC50 [1] [µM] | IC50 [7] [µM] | SMILES | Emax [2] [%] | efficacy compared with SHetA2 (A2780) | Emax [8] [%] | further results |
| --- | --- | --- | --- | --- | --- | --- |
| 6.97 | – | CC1(C)CC(C)(C)c2cc(NC(=S)Nc3ccc([N+](=O)[O-])cc3)ccc2O1 [Compound 2a, 1-(4-Nitrophenyl)-3-(2,2,4,4-tetramethylchroman-6-yl)thiourea] | 87 | exceeded the efficacy of SHetA2 | – | – |
| 6.4 | – | CC1(C)CCOc2ccc(NC(=S)Nc3ccc([N+](=O)[O-])cc3)cc21 [Compound 4a, 1-(4-Nitrophenyl)-3-(4,4-dimethylchroman-6-yl)thiourea] | 19 | – | – | – |
| 6.7 | – | CC1(C)CCOc2ccc(NC(=O)Nc3ccc([N+](=O)[O-])cc3)cc21 [Compound 5a, 1-(4-Nitrophenyl)-3-(4,4-dimethylchroman-6-yl)urea] | 74 | – | – | – |
| 2.9 | – | CCC1(CC)CC(C)(C)c2cc(NC(=S)Nc3ccc([N+](=O)[O-])cc3)ccc2O1 [Compound 6a, 1-(2,2-Diethyl-4,4-dimethylchroman-6-yl)-3-(4-nitrophenyl)thiourea] | 93.9 | exceeded the efficacy of SHetA2 | – | IC50 compared with SHetA2 (A2780): exceeded |
| 2.17 | – | CCC1(CC)CC(C)(C)c2cc(NC(=O)Nc3ccc([N+](=O)[O-])cc3)ccc2O1 [Compound 6b, 1-(2,2-Diethyl-4,4-dimethylchroman-6-yl)-3-(4-nitrophenyl)urea] | 93.3 | exceeded the efficacy of SHetA2 | – | IC50 compared with SHetA2 (A2780): exceeded |
| 3.69 | – | CCC1(CC)CC(C)(C)Oc2ccc(NC(=S)Nc3ccc([N+](=O)[O-])cc3)cc21 [Compound 7a, 1-(4,4-Diethyl-2,2-dimethylchroman-6-yl)-3-(4-nitrophenyl)thiourea] | 95.7 | exceeded the efficacy of SHetA2 | – | – |
| 2.05 | – | CCC1(CC)CC(C)(C)Oc2ccc(NC(=O)Nc3ccc([N+](=O)[O-])cc3)cc21 [Compound 7c, 1-(4,4-Diethyl-2,2-dimethylchroman-6-yl)-3-(4-nitrophenyl)urea] | 93.6 | exceeded the efficacy of SHetA2 | – | IC50 compared with SHetA2 (A2780): exceeded |
| 4.6 | – | CCC1(CC)CC(CC)(CC)c2cc(NC(=S)Nc3ccc([N+](=O)[O-])cc3)ccc2O1 [Compound 8a, 1-(4-Nitrophenyl)-3-(2,2,4,4-tetraethylchroman-6-yl)thiourea] | 94 | exceeded the efficacy of SHetA2 | – | – |
| 2.09 | – | CCC1(CC)CC(CC)(CC)c2cc(NC(=O)Nc3ccc([N+](=O)[O-])cc3)ccc2O1 [Compound 8b, 1-(4-Nitrophenyl)-3-(2,2,4,4-tetraethylchroman-6-yl)urea] | 91.4 | exceeded the efficacy of SHetA2 | – | IC50 compared with SHetA2 (A2780): exceeded |
| – | 3.93 ± 0.03 | CC1(C)CC(C)(C)c2cc(NC(=O)Nc3ccc(C#N)cc3)ccc2S1 [Compound 14c, 1-(4-Cyanophenyl)-3-(2,2,4,4-tetramethylthiochroman-6-yl)urea] | – | exceeded that of SHetA2 in efficacy | 93.3 ± 0.1 | – |
